Like-named read-outs stand apart in the source and are kept apart here.
Key:
[1] = test system: human dermal fibroblasts (HDFs); type: cell-based
Procedure: (§1) For the experiments, adenocarcinomic human alveolar basal epithelial cells A549 [69] and human dermal fibroblasts (HDFs) were used. Cultivation was performed in DMEM with FBS (10% (w/v), 15% (w/v)), MEM NEAAs (1% (w/v)), and penicillin–streptomycin (100 U*mL^−1, 1% (w/v)) at 37 °C in an incubator containing 5% CO2. A resazurin assay was used to detect the viability of the cells. Therefore, 2 × 10^4 cells per well of a 96-well plate were incubated in 200 µL DMEM with additives at 37 °C and 5% CO2. The medium was removed, and 100 µL of the medium and 100 µL of a peptide solution (2.5 µg/mL, 25 µg/mL) were added. After incubation for 24 h at 37 °C and 5% CO2, 20 µL of a resazurin solution (0.15 mg/mL) were added into each well, and the cells were incubated again for 24 h at 37 °C and 5% CO2. Fluorescence measurement (excitation wavelength—535 nm, emission wavelength—595 nm) of the resulting resorufin was then performed using a Tecan Infinite F200 microplate reader (Tecan Group Ltd., Männedorf, Switzerland).

[2] = test system: adenocarcinomic human alveolar basal epithelial cells A549; type: cell-based
Procedure: as §1

[3] = test system: invasive C. albicans clinical isolates; type: cell-based, Candida albicans; conditions: 20 biofilm-forming isolates
Procedure: The antifungal effect of Pom-1A to Pom-1F on Candida spp. biofilm formation can be determined following the Clinical and Laboratory Standard Institute guidelines (M27-A3). For this, 2.5 × 10^3 yeast cells were incubated in 200 µL of RPMI-1640 medium supplemented with L-glutamine, fluconazole, amphotericin B, and Pom-1A to Pom-1F. Incubation was performed on flat-bottomed polystyrene microplates with 96 wells (Sarstedt AG & Co. KG, Nümbrecht, Germany) for 24 h at 37 °C without shaking. The subsequent treatment with crystal violet was originally developed by George O’Toole for bacteria and adapted to Candida biofilms. For this purpose, the planktonic phase was removed, and the wells were washed twice with 200 µL of demineralized water. The remaining biofilm cells were treated with 200 µL of 0.1% (w/v) crystal violet solution for 15 min. After removing the solution, they were washed again twice with 200 µL demineralized water, and the microtiter plates were dried for at least 24 h at 25 °C. The stain was dissolved with 200 µL of 30% acetic acid and transferred to a new plate after 15 min. The absorbance at 560 nm was measured using a Tecan Infinite F200 microplate reader (Tecan Group Ltd., Männedorf, Switzerland). The resulting data were evaluated against the untreated controls so that the efficacy of the agents could be determined.

Triton X-100 was tested, and the “cell viability, HDF” value [1] was “zero” and the “cell viability, A549” value [2] was “zero”.
For `OC(Cn1cncn1)(Cn1cncn1)c1ccc(F)cc1F` [fluconazole, Fluconazole], the “number of resistant isolates (biofilm detectable, inhibition lower than 100%)” value ([3]; fluconazole 8 µg/mL (w/v)) was “four”.
With `C[C@@H]1[C@H](O)[C@@H](C)/C=C/C=C/C=C/C=C/C=C/C=C/C=C/[C@H](O[C@@H]2O[C@H](C)[C@@H](O)[C@H](N)[C@@H]2O)C[C@@H]2O[C@](O)(C[C@@H](O)C[C@@H](O)[C@H](O)CC[C@@H](O)C[C@@H](O)CC(=O)O[C@H]1C)C[C@H](O)[C@H]2C(=O)O` [amphotericin B] the “number of resistant isolates (biofilm detectable, inhibition lower than 100%)” value ([3]; amphotericin B 2 µg/mL (w/v)) was “six”.

From publication PMC9319270, “Combination of Six Individual Derivatives of the Pom-1 Antibiofilm Peptide Doubles Their Efficacy against Invasive and Multi-Resistant Clinical Isolates of the Pathogenic Yeast Candida albicans” (Pharmaceutics, 2022)
